The target of assay [1] is RNA-directed RNA polymerase (Hepacivirus hominis, UniProt O39930). The experiment in a line: Inhibition of HCV NS5B RNA dependent RNA polymerase.
Another assay relates to Hepatitis C virus. The experiment in a line: Antiviral activity against HCV assessed as inhibition of viral RNA replication in replicon cells by luciferase reporter gene assay. In kind it is functional, Hepacivirus hominis. A general note: Replicon systems follow genome replication, usually without infectious particles.
The target of assay [2] is Genome polyprotein (Hepatitis C virus genotype 1b (strain HC-J4) (HCV), UniProt O92972). The experiment in a line: Inhibition of HCV genotype 1b J4 NS5B RNA dependent RNA polymerase. Set-up: species or system Hepatitis C virus isolate HC-J4.
Chain of Genome polyprotein (Hepatitis C virus genotype 1b (strain HC-J4) (HCV), UniProt O92972) (O92972 2420-3010 limits assumed): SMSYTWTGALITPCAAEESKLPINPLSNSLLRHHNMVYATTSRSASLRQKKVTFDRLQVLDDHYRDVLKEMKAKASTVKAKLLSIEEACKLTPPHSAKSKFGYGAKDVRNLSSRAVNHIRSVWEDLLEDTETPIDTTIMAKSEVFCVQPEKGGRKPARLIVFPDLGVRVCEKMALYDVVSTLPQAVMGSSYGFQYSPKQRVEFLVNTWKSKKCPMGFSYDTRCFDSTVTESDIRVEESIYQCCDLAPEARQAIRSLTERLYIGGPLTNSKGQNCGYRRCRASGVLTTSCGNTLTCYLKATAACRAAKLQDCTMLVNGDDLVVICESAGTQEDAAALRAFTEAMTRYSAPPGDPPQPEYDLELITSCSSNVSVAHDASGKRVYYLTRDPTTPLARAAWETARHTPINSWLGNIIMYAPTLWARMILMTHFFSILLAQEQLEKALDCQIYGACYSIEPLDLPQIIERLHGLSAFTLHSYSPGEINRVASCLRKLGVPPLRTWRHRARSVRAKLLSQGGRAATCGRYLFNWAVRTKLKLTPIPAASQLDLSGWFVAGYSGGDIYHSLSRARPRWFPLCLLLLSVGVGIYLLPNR
Assay [3] concerns the target Genome polyprotein (Hepatitis C virus genotype 1b (isolate Con1) (HCV), UniProt Q9WMX2). In words: Inhibition of HCV genotype 1b Con1 NS5B RNA dependent RNA polymerase.

Each structure is given as a SMILES string.

Chain of RNA-directed RNA polymerase (O39930 whole entry): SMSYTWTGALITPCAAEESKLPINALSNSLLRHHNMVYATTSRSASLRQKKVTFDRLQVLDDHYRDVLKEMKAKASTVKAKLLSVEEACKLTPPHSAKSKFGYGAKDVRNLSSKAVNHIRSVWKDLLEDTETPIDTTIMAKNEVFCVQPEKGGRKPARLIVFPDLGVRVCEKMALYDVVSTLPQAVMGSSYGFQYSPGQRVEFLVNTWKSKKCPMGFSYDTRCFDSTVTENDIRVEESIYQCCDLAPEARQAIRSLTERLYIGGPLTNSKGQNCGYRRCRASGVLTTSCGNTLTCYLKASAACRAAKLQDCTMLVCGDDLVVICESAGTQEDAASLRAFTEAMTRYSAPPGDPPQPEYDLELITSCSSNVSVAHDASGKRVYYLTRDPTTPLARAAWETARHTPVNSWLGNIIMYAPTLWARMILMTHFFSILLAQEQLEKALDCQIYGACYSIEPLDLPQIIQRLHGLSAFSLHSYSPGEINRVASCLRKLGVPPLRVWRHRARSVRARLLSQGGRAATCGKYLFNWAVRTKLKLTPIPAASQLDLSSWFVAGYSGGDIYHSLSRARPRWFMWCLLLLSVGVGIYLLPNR
Chain of Genome polyprotein (Hepatitis C virus genotype 1b (isolate Con1) (HCV), UniProt Q9WMX2) (Q9WMX2 2420-3010 limits assumed): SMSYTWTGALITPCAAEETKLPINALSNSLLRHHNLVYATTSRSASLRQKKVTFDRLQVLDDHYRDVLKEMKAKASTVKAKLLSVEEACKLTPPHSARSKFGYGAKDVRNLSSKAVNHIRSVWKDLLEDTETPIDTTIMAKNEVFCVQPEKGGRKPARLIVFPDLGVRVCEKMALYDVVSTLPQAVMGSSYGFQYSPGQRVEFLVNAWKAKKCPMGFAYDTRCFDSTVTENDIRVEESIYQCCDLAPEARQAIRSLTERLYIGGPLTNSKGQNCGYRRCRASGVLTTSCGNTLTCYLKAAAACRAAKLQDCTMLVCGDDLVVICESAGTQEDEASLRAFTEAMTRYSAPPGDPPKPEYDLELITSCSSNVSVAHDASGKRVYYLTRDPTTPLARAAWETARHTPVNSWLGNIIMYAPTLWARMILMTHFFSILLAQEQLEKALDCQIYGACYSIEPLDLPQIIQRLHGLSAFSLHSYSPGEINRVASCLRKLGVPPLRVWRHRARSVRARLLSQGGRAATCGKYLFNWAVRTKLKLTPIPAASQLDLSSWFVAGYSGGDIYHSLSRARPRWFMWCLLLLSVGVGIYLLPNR

Broadly, the IC50 is the concentration that inhibits the measured activity by half. A low value points to higher potency. For orientation: EC50 means the midpoint of the concentration-response curve. The compound `Cc1ccc(S(=O)(=O)Nc2cc(-c3ccccc3)sc2C(=O)O)c(C)c1` returned an IC50 in assay [1] of 1 µM. Besides, the EC50 in the assay with Hepatitis C virus amounted to 5 µM.

For `Cc1ccc(P(=O)(Nc2cc(-c3ccc(Cl)cc3)sc2C(=O)O)OCC2CCOCC2)c(C)c1` (stereo not given), the EC50 in the assay on Hepatitis C virus came out at 0.32 µM. The compound further came in with an IC50 on Genome polyprotein [2] of 0.154 µM.

Consider `COP(=O)(Nc1cc(-c2ccc(Cl)cc2)sc1C(=O)O)c1ccc(Cl)cc1C` (stereo not given), for which, in the assay on Hepatitis C virus, the 50% effective concentration (EC50) came to 1.55 µM. Besides, the half-maximal inhibitory concentration (IC50) against Genome polyprotein [2] came out at 0.026 µM.

On to `CCOP(=O)(Nc1cc(-c2ccc(Cl)cc2)sc1C(=O)O)C1CCC(C)CC1` (stereo not given), for which, in the assay with Hepatitis C virus, the EC50 was > 8.3 µM. Further, at Genome polyprotein [2], 3.74 µM corresponded to half-maximal inhibition (IC50).

For the compound `Cc1ccc(P(=O)(Nc2cc(-c3ccc(Cl)cc3)sc2C(=O)O)OC(C)C)c(C)c1` (stereo not given), the EC50 in the assay on Hepatitis C virus came out at 2.28 µM. The IC50 against Genome polyprotein [2] came to 0.189 µM.

`COP(=O)(Nc1cc(-c2ccc(-c3cc4nc(C)ccn4n3)cc2)sc1C(=O)O)c1ccc(C)cc1C` (stereo not given): the concentration for a half-maximal effect (EC50) with Hepatitis C virus amounted to 0.0007 µM. At Genome polyprotein [2], this compound displayed an IC50 of 0.0078 µM.

`Cc1ccc(P(=O)(Nc2cc(-c3ccc(Cl)cc3)sc2C(=O)O)OCCc2ccc(F)cc2)c(C)c1` (stereo not given): the concentration giving a half-maximal response (EC50) with Hepatitis C virus was 2.41 µM. This compound registered an IC50 on Genome polyprotein [2] of 0.314 µM.

Take `CCOP(=O)(Nc1cc(-c2ccc(Cl)cc2)sc1C(=O)O)c1ccc(Cl)cc1C` (stereo not given): in the assay on Hepatitis C virus, the EC50 came to 2.92 µM. In addition, the half-maximal inhibitory concentration (IC50) at Genome polyprotein [2] came to 0.081 µM.

`COP(=O)(Nc1cc(-c2ccc(-c3cc4ncccc4o3)cc2)sc1C(=O)O)c1ccc(C)cc1C` (stereo not given): the 50% effective concentration (EC50) with Hepatitis C virus stood at 0.0007 µM. The IC50 at Genome polyprotein [2] was 0.0054 µM.

For the compound `CCCCOP(=O)(Nc1cc(-c2ccc(Cl)cc2)sc1C(=O)O)c1ccc(C)cc1C` (stereo not given), in the assay with Hepatitis C virus, the half-maximal effective concentration (EC50) came to 2.71 µM. The compound further showed a concentration for half-maximal inhibition (IC50) against Genome polyprotein [2] of 0.17 µM.

As for `COP(=O)(Nc1cc(-c2ccc(-c3cc4ccccc4o3)cc2)sc1C(=O)O)c1ccc(C)cc1C` (stereo not given), in the assay with Hepatitis C virus, the EC50 is 0.0017 µM. Besides, on Genome polyprotein [2], the half-inhibitory concentration (IC50) was 0.0056 µM.

`COP(=O)(Nc1cc(-c2ccc(Cl)cc2)sc1C(=O)O)c1ccc(C)cc1C` (stereo not given): the EC50 in the assay with Hepatitis C virus was 0.66 µM. On Genome polyprotein [2], this compound returned an IC50 of 0.021 µM.

Turning to `Cc1ccc(P(=O)(Nc2cc(-c3ccc(Cl)cc3)sc2C(=O)O)OCCC(C)C)c(C)c1` (stereo not given), the EC50 in the assay on Hepatitis C virus was found to be 3.56 µM. Also, on Genome polyprotein [2], the IC50 was found to be 0.298 µM.

On to `COP(=O)(Nc1cc(-c2ccc(Cl)cc2)sc1C(=O)O)c1ccc(Cl)cc1F` (stereo not given), for which the EC50 in the assay on Hepatitis C virus is 3.35 µM. The compound further yielded an IC50 against Genome polyprotein [2] of 0.298 µM.

Take `COP(=O)(Nc1cc(-c2ccc(-c3cc4ccccc4s3)cc2)sc1C(=O)O)c1ccc(C)cc1C` (stereo not given): the EC50 with Hepatitis C virus amounted to 0.0232 µM. The half-maximal inhibitory concentration (IC50) on Genome polyprotein [2] was determined as 0.0163 µM.

For `COP(=O)(Nc1cc(-c2ccc(-c3cc4nc(C)cc(N)n4n3)cc2)sc1C(=O)O)c1ccc(C)cc1C` (stereo not given), the values for the IC50 at Genome polyprotein [3] and on Genome polyprotein [2] were 0.009 µM and 0.0051 µM, respectively. Further, the EC50 with Hepatitis C virus is 0.0005 µM.

Consider `Cc1ccc(P(=O)(Nc2cc(-c3ccc(Cl)cc3)sc2C(=O)O)OCC(C)C)c(C)c1` (stereo not given), for which, in the assay with Hepatitis C virus, the EC50 came out at 3.04 µM. The same compound showed an IC50 against Genome polyprotein [2] of 0.223 µM.

On to `COP(=O)(c1ccc(C)cc1C)N(c1cc(-c2ccc(F)cc2)sc1C(=O)O)C(C)C` (stereo not given), for which the EC50 in the assay on Hepatitis C virus is 4.19 µM. The compound also gave a concentration for half-maximal inhibition (IC50) against Genome polyprotein [2] of 0.517 µM.

In the case of `Cc1ccc(P(=O)(Nc2cc(-c3ccc(Cl)cc3)sc2C(=O)O)OCc2cc3ccccc3o2)c(C)c1` (stereo not given), the EC50 in the assay with Hepatitis C virus is 2.7 µM. Besides, the IC50 against Genome polyprotein [2] came to 0.425 µM.

For `CCOP(=O)(Nc1cc(-c2ccccc2)sc1C(=O)O)C1CCC(C)CC1` (stereo not given), in the assay on Hepatitis C virus, the EC50 was > 8.3 µM. Also, the IC50 at Genome polyprotein [2] was > 10 µM.

`C=CP(=O)(Nc1cc(-c2ccc(Cl)cc2)sc1C(=O)O)OCC` (stereo not given): the EC50 with Hepatitis C virus was > 8.3 µM. In addition, the IC50 against Genome polyprotein [2] was > 10000 µM.

With `COP(=O)(Nc1cc(-c2ccc(C#CC3CC3)cc2)sc1C(=O)O)c1ccc(C)cc1C` (stereo not given), in the assay on Hepatitis C virus, the half-maximal effective concentration (EC50) amounted to 2.47 µM. The compound further came in with an IC50 on Genome polyprotein [2] of 0.0458 µM.

In the case of `CCCOP(=O)(Nc1cc(-c2ccc(Cl)cc2)sc1C(=O)O)c1ccc(C)cc1C` (stereo not given), the EC50 in the assay on Hepatitis C virus worked out at 3.53 µM. Besides, the IC50 against Genome polyprotein [2] came to 0.147 µM.

In the case of `COP(=O)(Nc1cc(-c2ccc(C#Cc3ccsc3)cc2)sc1C(=O)O)c1ccc(C)cc1C` (stereo not given), the concentration for a half-maximal effect (EC50) with Hepatitis C virus amounted to 0.0048 µM. This compound also had an IC50 at Genome polyprotein [2] of 0.0092 µM.

`CCOP(=O)(Nc1cc(-c2ccc(Cl)cc2)sc1C(=O)O)C1CC=C(C)CC1` (stereo not given): the EC50 in the assay on Hepatitis C virus is > 8.3 µM. At Genome polyprotein [2], this compound registered a half-maximal inhibitory concentration (IC50) of 1.13 µM.

Consider `COP(=O)(Nc1cc(-c2ccc(F)cc2)sc1C(=O)O)c1ccc(C)cc1C` (stereo not given), for which the EC50 with Hepatitis C virus is 2.14 µM. On Genome polyprotein [2], this compound displayed an IC50 of 0.118 µM.

On to `COP(=O)(c1ccc(C)cc1C)N(C)c1cc(-c2ccc(Cl)cc2)sc1C(=O)O` (stereo not given), for which the EC50 in the assay with Hepatitis C virus is 2.82 µM. Besides, the IC50 at Genome polyprotein [2] came out at 0.059 µM.

Take `COCCOP(=O)(Nc1cc(-c2ccc(Cl)cc2)sc1C(=O)O)c1ccc(C)cc1C` (stereo not given): in the assay with Hepatitis C virus, the EC50 was 2.66 µM. The compound further gave a half-maximal inhibitory concentration (IC50) against Genome polyprotein [2] of 0.135 µM.

As to `CC(C)N(c1cc(-c2ccccc2)sc1C(=O)O)C(=O)[C@H]1CC[C@H](C)CC1`, the IC50 in assay [1] amounted to 1.5 µM; on Genome polyprotein [2], 0.035 µM. Moreover, the EC50 in the assay with Hepatitis C virus was in the range of 0.369 to 0.6 µM.
